Assay results published in patent US8362000B2, “Azetidinyl diamides as monoacylglycerol lipase inhibitors” (Janssen Pharmaceutica NV, priority 2009, dated 2013).
Positions count from the first letter of the chain named. Where two headings read alike, the source gives them in different places.

How the values were obtained:
mutant MGL = target: T1, mutant MGL (Homo sapiens, UniProt Q99685, L169S/L176S); assay: MGL ThermoFluor assay - mutant; format: binding; conditions: read-out: MGL mutant ThermoFluor Kd
T1 sequence (Q99685 1-303 L169S/L176S): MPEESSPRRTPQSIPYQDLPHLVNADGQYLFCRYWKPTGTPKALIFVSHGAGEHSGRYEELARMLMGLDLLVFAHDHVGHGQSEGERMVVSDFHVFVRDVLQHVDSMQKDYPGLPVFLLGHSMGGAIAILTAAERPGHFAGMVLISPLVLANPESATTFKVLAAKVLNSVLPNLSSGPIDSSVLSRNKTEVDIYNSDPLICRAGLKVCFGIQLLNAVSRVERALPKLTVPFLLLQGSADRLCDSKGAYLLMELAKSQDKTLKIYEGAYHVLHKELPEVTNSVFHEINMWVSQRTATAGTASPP

MGL = target: T2, MGL (Rattus norvegicus, UniProt Q8R431); assay: 2-AG accumulation assay in rat brain homogenate; format: biochemical; conditions: rat brain homogenate, 2-AG accumulation as percent of vehicle; for 2-AG accumulation, % of vehicle control at 1 µM: compound 1 μM, read-out: Rat Brain 2AG % VehCntrl (%) @ 1 μM; for 2-AG accumulation, % of vehicle control at 10 µM: compound 10 μM, read-out: Rat Brain 2AG % VehCntrl (%) @ 10 μM
T2 construct: one g rat brain was homogenized using a Polytron homogenizer; from tissue; host or cells: rat brain homogenate
T2 sequence (Q8R431 1-303): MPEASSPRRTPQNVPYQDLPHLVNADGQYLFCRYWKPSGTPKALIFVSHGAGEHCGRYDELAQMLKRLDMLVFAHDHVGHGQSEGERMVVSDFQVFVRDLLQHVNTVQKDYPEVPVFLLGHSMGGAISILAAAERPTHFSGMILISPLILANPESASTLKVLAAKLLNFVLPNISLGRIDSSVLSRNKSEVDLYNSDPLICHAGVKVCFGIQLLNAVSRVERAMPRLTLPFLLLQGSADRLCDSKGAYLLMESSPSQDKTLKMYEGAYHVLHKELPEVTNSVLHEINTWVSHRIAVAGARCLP

[1] = target: T3, purified wild type MGL (wt-MGLL 6H-11-313) (Homo sapiens, UniProt Q99685)
T3 sequence (Q99685 1-303): T1 sequence (Q99685 1-303 L169S/L176S) with S169L, S176L

[2] = ThermoFluor concentration-response
[3] = ThermoFluor thermal stability binding assay

Row | Compound | Kd (mutant MGL; [2]) [nM] | 2-AG accumulation, % of vehicle control at 1 µM (MGL) [%] | IC50 [1] [nM] | Kd (mutant MGL; [3]) [nM] | 2-AG accumulation, % of vehicle control at 10 µM (MGL) [%] | 2-AG accumulation, % of vehicle control at 0.1 µM (MGL; compound 0.1 μM, read-out: Rat Brain 2AG % VehCntrl (%) @ 0.1 μM) [%]
1 | O=C(c1ccc(-c2ccc(Br)cc2)cc1)N1CC(N2CCN(C(=O)c3nccs3)CC2)C1 [Cpd 168, 1-{1-[(4′-Bromobiphenyl-4-yl)carbonyl]azetidin-3-yl}-4-(1,3-thiazol-2-ylcarbonyl)piperazine] | 10 | 813 | < 5 | – | – | –
2 | O=C(c1ccc(-c2ccc(Br)cc2)cc1)N1CC(N2CCN(C(=O)c3cscn3)CC2)C1 [Cpd 172, 1-{1-[(4′-Bromobiphenyl-4-yl)carbonyl]azetidin-3-yl}-4-(1,3-thiazol-4-ylcarbonyl)piperazine] | 100 | 217 | 7.3 | – | – | –
3 | O=C(c1ccc(-c2ccc(F)cc2)cc1)N1CC(N2CCN(C(=O)c3cscn3)CC2)C1 [Cpd 225, 1-{1-[(4′-Fluorobiphenyl-4-yl)carbonyl]azetidin-3-yl}-4-(1,3-thiazol-4-ylcarbonyl)piperazine] | – | – | 54.7 | 20 | 656 | –
4 | O=C(c1cscn1)N1CCN(C2CN(C(=O)c3ccc(-c4cccc(C(F)(F)F)c4)cc3F)C2)CC1 [Cpd 245, 1-(1-{[3-Fluoro-3′-(trifluoromethyl)biphenyl-4-yl]carbonyl}azetidin-3-yl)-4-(1,3-thiazol-4-ylcarbonyl)piperazine] | – | 518 | 16.4 | 9.5 | 829 | 224
5 | COc1cc(C(=O)N2CC(N3CCN(C(=O)c4cscn4)CC3)C2)ccc1-c1cccc(C(F)(F)F)c1 [Cpd 248, 1-(1-{[2-Methoxy-3′-(trifluoromethyl)biphenyl-4-yl]carbonyl}azetidin-3-yl)-4-(1,3-thiazol-4-ylcarbonyl)piperazine] | – | 312 | 7 | 6.7 | – | –
6 | Cc1cc(-c2ccc(Cl)c(C(F)(F)F)c2)ccc1C(=O)N1CC(N2CCN(C(=O)c3cscn3)CC2)C1 [Cpd 254, 1-(1-{[4′-Chloro-3-methyl-3′-(trifluoromethyl)biphenyl-4-yl]carbonyl}azetidin-3-yl)-4-(1,3-thiazol-4-ylcarbonyl)piperazine] | – | 544 | < 5 | 5.9 | – | –
7 | Cc1cc(-c2ccc(Cl)c(C(F)(F)F)c2)ccc1C(=O)N1CC(N2CCN(C(=O)c3ccccc3)CC2)C1 [Cpd 256, 1-(1-{[4′-Chloro-3-methyl-3′-(trifluoromethyl)biphenyl-4-yl]carbonyl}azetidin-3-yl)-4-(phenylcarbonyl)piperazine] | – | 157 | 13.4 | 33.3 | – | –
8 | Cc1cc(C(=O)N2CC(N3CCN(C(=O)c4cscn4)CC3)C2)ccc1-c1ccc(F)c(Cl)c1 [Cpd 257, 1-{1-[(3′-Chloro-4′-fluoro-2-methylbiphenyl-4-yl)carbonyl]azetidin-3-yl}-4-(1,3-thiazol-4-ylcarbonyl)piperazine] | – | 285 | < 5 | 3.3 | – | –
9 | COc1cc(C(=O)N2CC(N3CCN(C(=O)c4cscn4)CC3)C2)ccc1-c1ccc(Cl)c(C(F)(F)F)c1 [Cpd 262, 1-(1-{[4′-Chloro-2-methoxy-3′-(trifluoromethyl)biphenyl-4-yl]carbonyl}azetidin-3-yl)-4-(1,3-thiazol-4-ylcarbonyl)piperazine] | – | 386 | < 5 | 2.5 | – | –
10 | COc1cc(C(=O)N2CC(N3CCN(C(=O)c4ccccc4)CC3)C2)ccc1-c1ccc(F)c(Cl)c1 [Cpd 263, 1-{1-[(3′-Chloro-4′-fluoro-2-methoxybiphenyl-4-yl)carbonyl]azetidin-3-yl}-4-(phenylcarbonyl)piperazine] | – | 199 | 28.5 | 5 | – | –
